# Laboratory results reported in patent EP1614683B1, “Indazole compounds and pharmaceutical compositions for inhibiting protein kinases, and methods for their use” (priority 1999, dated 2001).
# Read-outs that look alike come from different tables or passages of the source.
# Key:
# human CHK1 (FL-CHK1) = target: T1, human CHK1 (FL-CHK1) (Homo sapiens, UniProt O14757); experiment: CHK1 coupled spectrophotometric assay; assay type: biochemical
# T1 construct: C-terminally His-tagged full-length human CHK1 (FL-CHK1) was expressed using the baculovirus/insect cell system; made in house; host or cells: baculovirus/insect cell system
# T1 sequence (O14757 1-476): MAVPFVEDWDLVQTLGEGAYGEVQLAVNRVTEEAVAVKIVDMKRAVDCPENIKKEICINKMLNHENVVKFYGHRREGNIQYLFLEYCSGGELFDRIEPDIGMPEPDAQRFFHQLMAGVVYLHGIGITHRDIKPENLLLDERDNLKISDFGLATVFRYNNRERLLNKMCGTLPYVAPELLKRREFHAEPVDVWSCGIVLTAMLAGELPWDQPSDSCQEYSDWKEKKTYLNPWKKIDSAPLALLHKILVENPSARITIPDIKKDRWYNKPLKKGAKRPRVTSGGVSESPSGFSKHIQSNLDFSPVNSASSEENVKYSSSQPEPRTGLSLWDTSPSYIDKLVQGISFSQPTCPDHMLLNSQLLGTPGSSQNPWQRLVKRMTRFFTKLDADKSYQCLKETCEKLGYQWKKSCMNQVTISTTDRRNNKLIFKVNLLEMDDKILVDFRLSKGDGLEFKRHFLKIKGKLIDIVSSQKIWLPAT
# Excerpt: CHK1 Construct for Assay: C-terminally His-tagged full-length human CHK1 (FL-CHK1) was expressed using the baculovirus/insect cell system. […] The protein was purified by conventional chromatographic techniques.
# The production of ADP from ATP that accompanies phosphoryl transfer to the synthetic substrate peptide Syntide-2 ([…]) was coupled to oxidation of NADH using phosphoenolpyruvate (PEP) through the actions of pyruvate kinase (PK) and lactic dehydrogenase (LDH). The oxidation of NADH was monitored by following the decrease of absorbance at 340 nm (∈340 = 6.22 cm^-1 mM^-1) using a HP8452 spectrophotometer. […] Assays were initiated with 10 nM of FL-CHK1. Ki values were determined by measuring initial enzyme activity in the presence of varying concentrations of test compounds. The data were analyzed using Enzyme Kinetic and Kaleidagraph software.
# [1] = target: T2, phosphorylated Tie-2 (aa 775-1122) (Homo sapiens, UniProt Q02763); experiment: TIE-2 spectrophotometric assay; assay type: biochemical; conditions: for inhibition at 10 µM: read-out: % Inhibition Tie2-P, compound tested at 10 µM; for inhibition at 1 µM: read-out: % Inhibition @ 1 µM Tie2-P
# T2 construct: 4 to 12 nM phosphorylated Tie-2 (aa 775-1122); made in house; host or cells: insect cells
# T2 sequence (Q02763 775-1122): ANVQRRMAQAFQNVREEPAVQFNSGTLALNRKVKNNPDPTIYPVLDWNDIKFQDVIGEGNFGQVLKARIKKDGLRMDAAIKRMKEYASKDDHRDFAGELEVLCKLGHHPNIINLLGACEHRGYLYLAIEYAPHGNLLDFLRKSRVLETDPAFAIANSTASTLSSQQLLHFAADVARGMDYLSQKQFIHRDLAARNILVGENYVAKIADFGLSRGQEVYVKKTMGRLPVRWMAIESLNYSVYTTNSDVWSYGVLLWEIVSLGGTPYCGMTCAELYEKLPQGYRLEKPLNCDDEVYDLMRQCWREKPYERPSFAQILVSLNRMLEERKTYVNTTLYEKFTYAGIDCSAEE
# Description: This construct also carries a R774M mutation, which serves as the initiating methionine residue in translation.
# The kinase-catalyzed production of ADP from ATP that accompanies phosphoryl transfer to the random copolymer poly(Glu4 Tyr) was coupled to the oxidation of NADH through the activities of pyruvate kinase (PK) and lactate dehydrogenase (LDH). NADH conversion to NAD* was monitored by the decrease in absorbance at 340 nm (ε = 6.22 cm^-1mM^-1) using a Beckman DU650 spectrophotometer. Typical reaction solutions contained 1 mM phosphoenolpyruvate, 0.24 mM NADH, 40 mM MgCl2, 5 mM DTT, 2.9 mg/mL poly(Glu4Tyr), 0.5 mM ATP, 15 units/mL PK, 15 units/mL LDH in 100 mM HEPES, pH 7.5. […]
# [2] = system: human umbilical vein endothelial cells (HUVEC); experiment: HUVEC proliferation assay (VEGF-stimulated, MTT); assay type: cell-based; conditions: Homo sapiens, HUVEC, Table 1; read-out: HUVEC IC50
# human FGF-R1 = human FGF-R1 (Homo sapiens, UniProt P11362, C488A/C584S/L457V); experiment: FGF-R spectrophotometric assay; assay type: biochemical; conditions: read-out: FGF* (% inhibition)
# Sequence of human FGF-R1 (P11362 456-766 L457V/C488A/C584S): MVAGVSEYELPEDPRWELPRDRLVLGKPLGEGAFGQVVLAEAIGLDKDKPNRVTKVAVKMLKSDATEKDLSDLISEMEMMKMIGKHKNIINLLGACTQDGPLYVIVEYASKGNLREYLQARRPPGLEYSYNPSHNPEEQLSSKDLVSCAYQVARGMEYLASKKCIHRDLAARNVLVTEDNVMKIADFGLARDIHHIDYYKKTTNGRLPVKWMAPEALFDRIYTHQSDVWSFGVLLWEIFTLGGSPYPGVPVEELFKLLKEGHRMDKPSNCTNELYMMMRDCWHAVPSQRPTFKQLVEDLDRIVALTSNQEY
# Description: The spectrophotometric assay was carried out as described above for VEGF-R2, except for the following changes in concentration: FGF-R = 50 nM, ATP = 2 mM, and poly(E4Y1) =15 mM.
# LCK tyrosine kinase = LCK tyrosine kinase (Homo sapiens, UniProt P06239, C224D/P223M); experiment: LCK spectrophotometric assay; assay type: biochemical; conditions: read-out: Lck* (% inhibition)
# Sequence of LCK tyrosine kinase (P06239 223-509 P223M/C224D): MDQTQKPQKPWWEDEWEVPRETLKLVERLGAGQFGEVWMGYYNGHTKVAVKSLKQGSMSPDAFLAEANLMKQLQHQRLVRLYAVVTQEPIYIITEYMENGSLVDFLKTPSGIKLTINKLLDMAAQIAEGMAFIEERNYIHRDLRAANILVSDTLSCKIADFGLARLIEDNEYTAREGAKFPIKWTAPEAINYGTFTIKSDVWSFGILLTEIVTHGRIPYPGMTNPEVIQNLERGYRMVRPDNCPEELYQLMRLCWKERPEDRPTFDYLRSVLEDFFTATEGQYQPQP
# Description: The spectrophotometric assay was carried out as described above for VEGF-R2, except for the following changes in concentration: LCK = 60 nM, MgCl2 = 0 mM, poly(E4Y1) = 20 mM.
# [3] = read-out: CHK-1* (% inhibition @ 50 µM)
# [4] = Table 5, 1 µM, bold values spectrophotometric assay, non-bolded DELFIA assay (bold not visible here)
molecule,measurement,setting,value
3-(1H-benzoimidazol-2-yl)-N-(4-hydroxy-3-methylphenyl)-1H-indazole-6-carboxamide [Example 53(c)],Ki,human CHK1 (FL-CHK1); Table 3; read-out: CHK-1* (Ki),1.1 µM
"Oc1ccc(-c2ccc3c(-c4cc5ccccc5o4)n[nH]c3c2)cc1OCc1ccccc1 [2(e), 3-(Benzofuran-2-yl)-6-(3-benzyloxy-4-hydroxy-phenyl)-1H-indazole]",inhibition at 20 µM,human CHK1 (FL-CHK1); read-out: CHK -1* (% inhibition @ 20 µM),5%
"COCOc1ccc(Oc2ccc3c(/C=C/c4ccccc4)n[nH]c3c2)cc1 [8(b), 3-(E-styryl)-6-[4-(methoxymethoxy)phenoxy]-1H-indazole]",inhibition at 50 µM,human CHK1 (FL-CHK1); [3],12%
"Oc1ccc(Oc2ccc3c(/C=C/c4ccccc4)n[nH]c3c2)cc1 [9(b), 3-(E-styryl)-6-[4-hydroxyphenoxy]-1H-indazole]",inhibition at 10 µM,[1],88%
"CN(c1cccc(NC(=O)OCc2ccccc2)c1)c1ccc2c(/C=C/c3ccccc3)n[nH]c2c1 [12(c), {3-[Methyl-(3-styryl-1H-indazol-6-yl)-amino]-phenyl}-carbamic acid benzyl ester]",inhibition at 1 µM,[1]; [4],17%
"C=C(c1cccc(NC(=O)c2ncc(C)s2)c1)c1ccc2c(/C=C/c3ccccc3)n[nH]c2c1 [22(a), 6-(1-(3-(5-Methyl-thiaxole-2-carboxoylamido)phenyl)-vinyl)-3-styryl-1H-indazole]",inhibition at 1 µM,[1]; [4],8%
same,IC50,[2],0.012 µM
"COc1cc(-c2ccc3c(-c4nc5ccccc5[nH]4)n[nH]c3c2)c(C)cc1O [24(a), 4-[3-(1-H-Benzoimidazol-2-yl)-1-H-indazol-6-yl]-2-methoxy-5-methyl-phenol]",inhibition at 1 µM,human FGF-R1,72%
same,inhibition at 1 µM,LCK tyrosine kinase,67%
same,inhibition at 10 µM,[1],91%
"Cc1cc(O)ccc1-c1ccc2c(-c3nc4ccccc4[nH]3)n[nH]c2c1 [24(b), 4-[3-(1-H-Benzoimidazol-2-yl)-1-H-indazol-6-yl]-3-methylphenol]",inhibition at 1 µM,human FGF-R1,88%
same,inhibition at 1 µM,LCK tyrosine kinase,96%
same,inhibition at 10 µM,[1],92%
"Cc1cc(O)c(Cl)cc1-c1ccc2c(-c3nc4ccccc4[nH]3)n[nH]c2c1 [24(c), 4-[3-(1-H-Benzoimidazol-2-yl)-1-B-indazol-6-yl]-2-chloro-5-methyl-phenol]",inhibition at 1 µM,human FGF-R1,89%
same,inhibition at 1 µM,LCK tyrosine kinase,93%
same,inhibition at 1 µM,[1],94%
"C=C(c1ccccc1)c1ccc2c(/C=C/c3ccccc3)n[nH]c2c1 [Example 10, 6-(1-Phenyl-vinyl)-3-styryl-1H-indazole]",inhibition at 10 µM,[1],20%
same,IC50,[2],> 0.7 µM
"CN(c1cccc(N)c1)c1ccc2c(/C=C/c3ccccc3)n[nH]c2c1 [Example 11, N-Methyl-N-(3-styryl-1H-indazol-6-yl)-benzene-1,3-diamine]",inhibition at 1 µM,[1]; [4],40%
"CN(c1ccccc1)c1ccc2c(/C=C/c3ccccc3)n[nH]c2c1 [Example 14, Methyl-phenyl-(3-styryl-1H-indazol-6-yl)-amine]",inhibition at 25 µM,human CHK1 (FL-CHK1); read-out: CHK -1* (% inhibition @ 25 µM),12%
"O=C(c1ccccc1)c1ccc2c(/C=C/c3ccccc3)n[nH]c2c1 [Example 17, Phenyl-(3-styryl-1H-indazol-6-yl)-methanone]",inhibition at 1 µM,[1],50%
"C=C(c1cccc(N)c1)c1ccc2c(/C=C/c3ccccc3)n[nH]c2c1 [Example 21, 6-(1-(3-Aminophenyl)-vinyl)-3-styryl-1H-indazole]",inhibition at 1 µM,[1]; [4],27%
same,IC50,[2],> 0.7 µM
"Cc1c(O)ccc(NC(=O)c2ccc3c(-c4nc5ccccc5[nH]4)n[nH]c3c2)c1C [Example 53(d), 3-(1H-benzoimidazol-2-yl)-N-(4-hydroxy-2,3-dimethylphenyl)-1H-indazole-6-carboxamide]",CHK-1* (inhibition @ 100 µM),human CHK1 (FL-CHK1); Table 3; @ 100 µM; NI = no significant inhibition,Nl @ 100 µM
"CSc1cc(O)ccc1-c1ccc2c(-c3nc4ccccc4[nH]3)n[nH]c2c1 [Reference Example 24(k), 3-1H-Benzoimidazol-2-yl-6.(2-methylsulfanyl-4-hydroxyphenyl}-1H-indazole]",inhibition at 1 µM,LCK tyrosine kinase,89%
same,inhibition at 1 µM,human CHK1 (FL-CHK1); read-out: CHK1* (% inhibition),81%
"COc1cc(O)ccc1-c1ccc2c(-c3nc4ccncc4[nH]3)n[nH]c2c1 [Reference Example 25(a), 3-(3H-Imidazo[4,5-c]pyridin-2-yl)-6-(4-hydroxy-2-methoxyphenyl)-1H-indazole]",inhibition at 1 µM,human FGF-R1,62%
same,inhibition at 1 µM,LCK tyrosine kinase,44%
same,inhibition at 1 µM,human CHK1 (FL-CHK1); read-out: CHK1* (% inhibition),49%
"COc1cc(O)ccc1-c1ccc2c(-c3nc4ccc(C(=O)NCCN5CCOCC5)cc4[nH]3)n[nH]c2c1 [Reference Example 25(b), 3-[6-(2-morpholin-4-yl-ethylcarbamoyl)-1H-benzoimidazol-2-yl]-6-(2-methoxy-4-hydroxyphenyl)-1H-indazole]",inhibition at 1 µM,human FGF-R1,87%
same,inhibition at 1 µM,LCK tyrosine kinase,87%
same,inhibition at 1 µM,human CHK1 (FL-CHK1); read-out: CHK1* (% inhibition),83%
"COc1cc(O)ccc1-c1ccc2c(-c3nc4ccc(N5CCN(C)CC5)cc4[nH]3)n[nH]c2c1 [Reference Example 25(c), 3-[6-(4-methylpiperazin-1-yl)-1H-benzoimidazol-2-yl]-6-(2-methoxy-4-hydroxyphenyl)-1H-indazole]",inhibition at 1 µM,human FGF-R1,96%
same,inhibition at 1 µM,human CHK1 (FL-CHK1); read-out: CHK1* (% inhibition),90%
COc1cc(O)ccc1-c1ccc2c(-c3nc4c(N5CCN(C)CC5)cccc4[nH]3)n[nH]c2c1 [Reference Example 25(d)],inhibition at 1 µM,human FGF-R1,80%
same,inhibition at 1 µM,LCK tyrosine kinase,60%
same,inhibition at 1 µM,human CHK1 (FL-CHK1); read-out: CHK1* (% inhibition),87%
"COc1cc(O)ccc1-c1ccc2c(-c3ncc[nH]3)n[nH]c2c1 [Reference Example 25(e), 3-imidazol-2-yl-6-(2-methoxy-4-hydroxyphenyl)-1H-indazole]",inhibition at 1 µM,human FGF-R1,26%
same,inhibition at 1 µM,LCK tyrosine kinase,13%
same,inhibition at 1 µM,human CHK1 (FL-CHK1); read-out: CHK1* (% inhibition),16%
"COc1cc(O)ccc1-c1ccc2c(-c3nc4cc(N(C)C)ccc4[nH]3)n[nH]c2c1 [Reference Example 25(h), 3-(5-Dimethylamino-1H-benzoimidazol-2-yl)-6-(2-methoxy-4-hydroxy-phenyl)-1H-indazole]",inhibition at 1 µM,human FGF-R1,91%
same,inhibition at 1 µM,LCK tyrosine kinase,87%
same,inhibition at 1 µM,human CHK1 (FL-CHK1); read-out: CHK1* (% inhibition),86%
COc1cccc(-c2ccc3c(/C=C/c4ccccc4)n[nH]c3c2)c1 [Reference Example 27(b)],inhibition at 50 µM,human CHK1 (FL-CHK1); [3],28%
COc1ccc(-c2ccc3c(/C=C/c4ccccc4)n[nH]c3c2)cc1 [Reference Example 27(c)],inhibition at 5 µM,human CHK1 (FL-CHK1); read-out: CHK-1* (% inhibition @ 5 µM),11%
C(=C\c1n[nH]c2cc(-c3cccc4ccccc34)ccc12)/c1ccccc1 [Reference Example 27(d)],inhibition at 10 µM,human CHK1 (FL-CHK1); read-out: CHK-1* (% inhibition @ 10 µM),14%
COc1ccc(-c2ccc3c(/C=C/c4ccccc4)n[nH]c3c2)cc1OC [Reference Example 27(j)],inhibition at 50 µM,human CHK1 (FL-CHK1); [3],15%
"Clc1cccc(Cl)c1/C=C/c1n[nH]c2cc(-c3ccncc3)ccc12 [Reference Example 29(a), 6-pyrid-4-yl-3-E-[2-(2,6-dichlorophenyl)ethenyl]-1H-indazole]",CHK-1* (inhibition @ 25 µM),human CHK1 (FL-CHK1); Table 3; @ 25µM; NI = no significant inhibition,Nl @ 25µM
"Fc1ccc(F)c(/C=C/c2n[nH]c3cc(-c4ccncc4)ccc23)c1 [Reference Example 29(s), 6-pyrid-4-yl-3-E-[2-(2,5-difluorophenyl)ethenyl]-1H-indazole]",Ki,human CHK1 (FL-CHK1); read-out: CHK-1* (Ki); Table 3,11 µM
